From patent US6585996B1, “Lipid-soluble thiamine derivatives in the treatment of autism” (Westlake Laboratories, Inc., priority 2002, dated 2003)

Assays:
[1] = tested on: autistic children; conditions: 10 subjects, 50 mg TTFD twice a day, rectal suppository, two months
Description: In a pilot study, ten autistic children, eight boys and two girls, were administered 50 mg of TTFD twice a day through a rectal suppository for a two-month trial period. All the patients were previously diagnosed with autism as defined by those in the field. Parents were asked to fill in a symptom check form to assess the symptoms of the autistic children by giving a numerical score as to severity.
Both forms are scored by computer and were designed by the Autism Research Institute specifically for research of this spectrum of disease. The first form, Form E2, is a diagnostic tool that allocates points on a symptomatic basis. The higher the score, the closer the patient comes to being considered a classic case of autism. The common form of autism that is occurring within the pilot test group seldom reaches the score that indicates classic autism, defined as the inability of a person to relate themself in the ordinary way to people and situations from the beginning of life.
The second form, the ATEC (Autism Treatment Evaluation Checklist) form, also allocates points on a symptomatic basis. […] In addition to completing the forms based on patient behavior, physiological changes were also measured.
Clinical improvement, as shown by the bars, is obtained by subtracting the final ATEC score from that calculated at the outset of the study.

[2] = tested on: children with autism; conditions: a few children with autism
Source text: A few children with autism have been exposed to a dermal preparation since the study has been completed.

With CC(=C(CCO)SSCC1CCCO1)N(C=O)Cc1cnc(C)nc1N (stereo in doubt) [TTFD, thiamine tetrahydrofurfuryl disulfide] the “Subjects showing clinical improvement in their autistic disorder” value [1] was “Eight of the 10”, the “Clinical results of oral versus rectal administration” value was “does not appear to give as striking clinical results as rectal administration” and the “Clinical condition with dermal preparation” value [2] was “immediate improvement in the child's condition was noted”.
